In US8334299B2, “β-carboline for the treatment of neurodegenerative diseases” (Ellneuroxx, Ltd., priority 2007, dated 2012):

How the values were obtained:
[1] = system: dopaminergic neurons; test: Primary midbrain culture, tyrosin hydroxylase staining and counting of dopaminergic neurons; format: cell-based, mice
Procedure: The experiments were carried out with the human neuroblastoma cell line (SH-SY5Y-cells) and with a cell culture of primary nerve cells from the mice embryo midbrain. […] Moreover, the mentioned compounds induce in the primary culture from the mice embryo midbrain the generation of new, differentiated and functional dopaminergic neurons.
To this aim midbrain cultures were prepared and kept for 10-12 days (DIV=Days in vitro) in an appropriate medium to accustom to in vitro conditions. Then 9-methyl-β-carboline was added in increasing concentrations and it was waited for 48 hours. Dopaminergic neurons were identified by staining with tyrosin hydroxylase. This enzyme occurs only in dopaminergic midbrain neurons. The number of dopaminergic neurons can be counted reliably with this method. In addition, hints can be obtained whether the dopaminergic neurons are mature or if they are precursor cells. The mature cells have characteristic extensions which also contain tyrosin hydroxylase.

[2] = system: dopaminergic neurons; test: Dopamine concentration in midbrain culture; format: cell-based, mice; conditions: 50 μM, 48 hours, 10 DIV-12 DIV
Procedure: FIG. 2a Dopamine concentration (dopamine content) after incubation with 50 μM 9-methyl-β-carboline for 48 hours from 10 DIV-12 DIV.
(§1) To obtain further hints that the number of dopaminergic neurons really has increased, the dopamine concentration was measured. […] Another characteristic and specificity of dopaminergic neurons is the transport of dopamine into the neurons. Dopamine cannot permeate the outer membrane of neurons because of its hydrophilic character. It must be actively and energy-dependently transported through the DAT mechanism.

[3] = system: dopaminergic neurons; test: 3H-dopamine uptake (dopamine transport capacity) in midbrain culture; format: cell-based, mice; conditions: 50 μM, 48 hours, 10 DIV-12 DIV
Procedure: FIG. 2b Dopamine transport capacity of dopaminergic neurons after 48 hours. ^3H-dopamine uptake after incubation with 50 μM 9-Me-BC for 48 hours from 10 DIV-12 DIV.
as §1

[4] = system: neurons (total); test: Total number of neurons in midbrain culture (different dyes); format: cell-based, mice; conditions: 50 μM, 48 hours; not as much as dopaminergic neurons
Procedure: FIG. 3 Percentage of neurons (total) after incubation with 50 μM 9-methyl-β-carboline for 48 hours from 10 DIV-12 DIV.
9-methyl-β-carboline was used to show whether only dopaminergic neurons were influenced, or other neurons or glial cells as well. This question can be answered by the use of different dyes.

[5] = system: undifferentiated multipotent neuronal precursor cells from the midbrain of mouse embryos; test: Differentiation of multipotent neuronal precursor cells with compound in culture medium; format: cell-based; conditions: 50 μM final concentration once per week
Procedure: To verify if 9-methyl-β-carboline increases the efficiency of culture media for the experiments with neurons and for tissue engineering, pilot experiments were carried out by way of example with undifferentiated multipotent neuronal precursor cells from the midbrain of mouse embryos (embryonic day 14). By suitable cultivation procedures a cell suspension was produced which was kept for four weeks in a medium that contained, inter alia, growth factors from fibroblasts and the skin (epidermal growth factor). After this time the neuronal precursor cells were differentiated in a medium to promote the maturation of neurons. After a week, about 40% of the cells could be stained by a neuronal marker (β-tubulin, type III). Most other cells were glial cells. A small percentage of the neurons could be colored additionally with the antibody for tyrosin hydroxylase (˜3%). This means that about three percent of the neurons were from the dopaminergic cell type. The enzyme tyrosin hydroxylase can only be found in the midbrain in dopaminergic neurons.
Under corresponding conditions 9-methyl-β-carboline (50 μM final concentration) were added to the culture medium once per week, also once to the differentiation medium. […]

[6] = system: brain-derived neurotrophic factor (BDNF); test: PCR superarray of RNA from the striata of MPP+ rats: BDNF; format: in vivo, rat
Description: To investigate Parkinson's disease acute in vivo models are used for years although chronic models would be a better model for the disease. Another disadvantage of the acute models is that ca. 40% of the animals die from the application of the neurotoxin. Therefore, we have chosen a chronic model in which comparably very low doses of neurotoxin 1-methyl-4-phenylpyridinium (MPP^+) were infused for 28 days into the left lateral ventricle of the rat brain. The substance was continuously applied through osmotic minipumps. Thereby, casualties were completely avoided. After four weeks, either solvent or equimolar amounts of the sample substance, namely neuroprotective betacarboline, resp. 9-alkyl-betacarboline was infused for two weeks via the same catheter. In a preliminary study for dose-finding the MPP^+ dose which leads to a reduction by 40% of the dopamine concentration in the striatum was determined. The dopamine concentration in the striatum is a characteristic marker for Parkinson's disease in which a degeneration of dopaminergic neurons occurs.
An explanation for the effect of the betacarboline was found in the tests of the RNA from the striata of these rats through the PCR superarray method. Accordingly, the betacarboline activates the generation of neurotrophins, thus proteins produced naturally in the body, which are responsible for the growth and differentiation of neurons. […]

Cn1c2ccccc2c2ccncc21 [9-methyl-β-carboline]
increase in dopaminergic neurons after inactivation of the dopamine transporter DAT ([1]; 50 μM 9-Me-BC with DAT inhibitor GBR12909, 48 hours): does not occur
cellular extensions and branching of dopaminergic neurons ([1]; 50 μM, 48 hours, vs control without compound): significantly more cellular extensions
number of dopaminergic neurons ([1]; 10-200 μM, 48 hours, 10 DIV-12 DIV, increase up to ca. 100 μM): increased dose-dependently
dopamine concentration (dopamine content) [2]: slightly increased without reaching significance level
neuronal transport capacity of dopamine (3H-dopamine uptake) [3]: increases
total number of neurons [4]: increases
increase of percentage of dopaminergic cells [5]: 25%
increase of amount of neurons compared to control conditions ([5]; 3 independent experiments): 15%
increase of BDNF compared to rats infused solvent only for six weeks ([6]; left striatum): 4.9 times
increase of BDNF compared to rats infused solvent only for six weeks ([6]; right striatum): 8.5 times
